The text below walks through data of patent publication US20250333424A1, “ANTIVIRAL COMPOUNDS” (Gilead Sciences, Inc., priority 2024, published 2025).

The experiment concerns monocytic THP1 cells infected with HIV VSV-G pseudotyped GFP-NEF reporter virus. As to the kind of experiment: cells. The settings on record: Human immunodeficiency virus 1, THP-1, 24 h. In kind it is cell-based.
Compound `Cc1cc(/C=C/C#N)cc(C)c1Oc1nc(NC23CC(C#N)(C2)C3)nc2nc(Nc3ccccn3)[nH]c12` [Compound 68, (E)-3-((6-(4-(2-cyanovinyl)-2,6-dimethylphenoxy)-8-(pyridin-2-ylamino)-7H-purin-2-yl)amino)bicyclo[1.1.1]pentane-1-carbonitrile] registered an EC50 of 273 nM. This lies in the sub-micromolar range.

In the case of `COc1n[nH]c2nc(NC34CC(C#N)(C3)C4)nc(Oc3c(C)cc(/C=C/C#N)cc3C)c12` [Compound 109, (E)-3-((4-(4-(2-cyanovinyl)-2,6-dimethylphenoxy)-3-methoxy-1H-pyrazolo[3,4-d]pyrimidin-6-yl)amino)bicyclo[1.1.1]pentane-1-carbonitrile], the EC50 turned out to be 200 nM. This EC50 and that of the compound before are within 1.5-fold of each other.

With `Cc1cc(/C=C/C#N)cc(C)c1Oc1nc(NC23CC(C#N)(C2)C3)nc2c1c(C)n[s+]2[O-]` (stereo not drawn) [Compound 297, (E)-3-((4-(4-(2-cyanovinyl)-2,6-dimethylphenoxy)-3-methyl-1-oxidoisothiazolo[5,4-d]pyrimidin-6-yl)amino)bicyclo[1.1.1]pentane-1-carbonitrile], the EC50 is 159 nM.

The compound `Cc1cc(/C=C/C#N)cc(C)c1Oc1nc(NC23CC(C#N)(C2)C3)nc2c1[C@@H](C)NC2=O` [Compound 137, 3-[[(5R)-4-[4-[(E)-2-cyanovinyl]-2,6-dimethyl-phenoxy]-5-methyl-7-oxo-5,6-dihydropyrrolo[3,4-d]pyrimidin-2-yl]amino]bicyclo[1.1.1]pentane-1-carbonitrile] displayed a 50% effective concentration (EC50) of 6.9 nM.

Consider `Cc1cc(/C=C/C#N)cc(C)c1Oc1nc(NC23CC(C#N)(C2)C3)nc2c1C(C)N(CC1CC1)C2=O` (stereo not drawn) [Example 210, (E)-3-((4-(4-(2-cyanovinyl)-2,6-dimethylphenoxy)-6-(cyclopropylmethyl)-5-methyl-7-oxo-6,7-dihydro-5H-pyrrolo[3,4-d]pyrimidin-2-yl)amino)bicyclo[1.1.1]pentane-1-carbonitrile], for which the EC50 is 125 nM.

The compound `Cc1cc(/C=C/C#N)cc(C)c1Oc1nc(NC23CC(C#N)(C2)C3)nc2c1C1(C)O[C@H](C)CN1C2=O` (single isomer, unassigned) [Example 251] yielded a 50% effective concentration (EC50) of 73.2 nM.

`Cc1cc([C@@H]2C[C@@H]2C#N)cc(C)c1Oc1nc(NC23CC(C#N)(C2)C3)nc2nn(C)cc12` (racemic) [Compound 131, (rac)-3-[[4-[4-[(1R,2S)-2-cyanocyclopropyl]-2,6-dimethyl-phenoxy]-2-methyl-pyrazolo[3,4-d]pyrimidin-6-yl]amino]bicyclo[1.1.1]pentane-1-carbonitrile]: it took 1470 nM to reach a half-maximal effect (EC50).

Consider `Cc1cc(/C=C/C#N)cc(C)c1Oc1nc(NC23CC(C#N)(C2)C3)nc2c1[C@]1(C)O[C@@H]3CC[C@@H]3N1C2=O` (single isomer, unassigned) [Compound 284], for which it took 34.9 nM to reach a half-maximal effect (EC50).

The compound `Cc1cc(/C=C/C#N)cc(C)c1Oc1nc(NC23CC(C#N)(C2)C3)nc2c1c(N)nn2C` [Compound 125, 3-[[3-amino-4-[4-[(E)-2-cyanovinyl]-2,6-dimethyl-phenoxy]-1-methyl-pyrazolo[3,4-d]pyrimidin-6-yl]amino]bicyclo[1.1.1]pentane-1-carbonitrile] gave an EC50 of 111 nM. This EC50 lies about 3.2-fold higher than the previous one.

Turning to `Cc1cc(/C=C/C#N)cc(C)c1Oc1nc(NC23CC(C#N)(C2)C3)nc2c1C(OCC(F)F)NC2=O` (stereo not drawn) [Compound 289, (E)-3-((4-(4-(2-cyanovinyl)-2,6-dimethylphenoxy)-5-(2,2-difluoroethoxy)-7-oxo-6,7-dihydro-5H-pyrrolo[3,4-d]pyrimidin-2-yl)amino)bicyclo[1.1.1]pentane-1-carbonitrile], it took 52.9 nM to reach a half-maximal effect (EC50).

For the compound `Cc1cc(/C=C/C#N)cc(C)c1Oc1nc(NC23CC(C#N)(C2)C3)nc2nnn(C)c12` [Compound 81, (E)-3-((7-(4-(2-cyanovinyl)-2,6-dimethylphenoxy)-1-methyl-11H-[1,2,3]triazolo[4,5-d]pyrimidin-5-yl)amino)bicyclo[1.1.1]pentane-1-carbonitrile], the EC50 stood at 35.6 nM.

`Cc1cc(/C=C/C#N)cc(C)c1Oc1nc(NC23CC(C#N)(C2)C3)nc2c1nc(C)n2Cc1ccn[nH]1` (single isomer, unassigned) [Compound 19, (E)-3-((9-((1H-pyrazol-5-yl)methyl)-6-(4-(2-cyanovinyl)-2,6-dimethylphenoxy)-8-methyl-9H-purin-2-yl)amino)bicyclo[1.1.1]pentane-1-carbonitrile] displayed an EC50 of 90.9 nM. This EC50 lies about 2.6-fold higher than the previous one.

`Cc1cc(/C=C/C#N)cc(C)c1Oc1nc(NC23CC(C#N)(C2)C3)nc2c(=O)n3n(c12)CCC3` [Compound 295, (E)-3-((4-(4-(2-cyanovinyl)-2,6-dimethylphenoxy)-10-oxo-7,8-dihydro-6H,10H-pyrazolo[1′,2′:1,2]pyrazolo[4,3-d]pyrimidin-2-yl)amino)bicyclo[1.1.1]pentane-1-carbonitrile] showed an EC50 of 55.3 nM.

`Cc1cc(/C=C/C#N)cc(C)c1Oc1nc(NC23CC(C#N)(C2)C3)nc2c1nc(C)n2CCC#N` [Compound 57, (E)-3-((9-(2-cyanoethyl)-6-(4-(2-cyanovinyl)-2,6-dimethylphenoxy)-8-methyl-9H-purin-2-yl)amino)bicyclo[1.1.1]pentane-1-carbonitrile] gave an EC50 of 147 nM.

Compound `Cc1cc(/C=C/C#N)cc(C)c1Oc1nc(NC23CC(C#N)(C2)C3)nc2nn3c(c12)CCCC3` [Example 256, (E)-3-((4-(4-(2-cyanovinyl)-2,6-dimethylphenoxy)-5,6,7,8-tetrahydropyrido[1′,2′:1,5]pyrazolo[3,4-d]pyrimidin-2-yl)amino)bicyclo[1.1.1]pentane-1-carbonitrile] gave an EC50 of 36.1 nM. Compared with the last compound, the EC50 is about 4.1-fold lower.

On to `Cc1cc(/C=C/C#N)cc(C)c1Oc1nc(NC23CC(C#N)(C2)C3)nc2c1C1(C)OC[C@H](C)CN1C2=O` (single isomer, unassigned) [Example 245], for which the EC50 stood at 22.3 nM.

For `Cc1cc(/C=C/C#N)cc(C)c1Oc1nc(NC23CC(C#N)(C2)C3)nc2c1[C@@H](C(F)(F)F)NC2=O` [Example 254, (S,E)-3-((4-(4-(2-cyanovinyl)-2,6-dimethylphenoxy)-7-oxo-5-(trifluoromethyl)-6,7-dihydro-5H-pyrrolo[3,4-d]pyrimidin-2-yl)amino)bicyclo[1.1.1]pentane-1-carbonitrile], the 50% effective concentration (EC50) was 71.4 nM.

For the compound `Cc1cc(/C=C/C#N)cc(C)c1Oc1nc(NC23CC(C#N)(C2)C3)nc2nn(C)c(C)c12` [Compound 86, (E)-3-((4-(4-(2-cyanovinyl)-2,6-dimethylphenoxy)-2,3-dimethyl-2H-pyrazolo[3,4-d]pyrimidin-6-yl)amino)bicyclo[1.1.1]pentane-1-carbonitrile], the 50% effective concentration (EC50) was 18.3 nM.

Take `Cc1cc(/C=C/C#N)cc(C)c1Oc1nc(NC23CC(C#N)(C2)C3)nc2c(=O)n(C)n(C)c12` [Compound 291, (E)-3-((7-(4-(2-cyanovinyl)-2,6-dimethylphenoxy)-1,2-dimethyl-3-oxo-2,3-dihydro-1H-pyrazolo[4,3-d]pyrimidin-5-yl)amino)bicyclo[1.1.1]pentane-1-carbonitrile]: a half-maximal effect (EC50) was put at 31.1 nM. Compared with the last compound, the EC50 is about 1.7-fold higher.

Take `Cc1cc(/C=C/C#N)cc(C)c1Oc1nc(NC23CC(C#N)(C2)C3)nc2c1C(C)(C)N(c1cnn(C)c1)C2=O` [Example 230, (E)-3-((4-(4-(2-cyanovinyl)-2,6-dimethylphenoxy)-5,5-dimethyl-6-(1-methyl-1H-pyrazol-4-yl)-7-oxo-6,7-dihydro-5H-pyrrolo[3,4-d]pyrimidin-2-yl)amino)bicyclo[1.1.1]pentane-1-carbonitrile]: a half-maximal response (EC50) required 116 nM.

The compound `Cc1cc(/C=C/C#N)cc(C)c1Oc1nc(NC23CC(C#N)(C2)C3)nc2c1C1(C)SCCCN1C2=O` (stereo not drawn) [Example 246, (E)-3-((4-(4-(2-cyanovinyl)-2,6-dimethylphenoxy)-4b-methyl-10-oxo-4b,7,8,10-tetrahydro-6H-pyrimido[5′,4′:3,4]pyrrolo[2,1-b][1,3]thiazin-2-yl)amino)bicyclo[1.1.1]pentane-1-carbonitrile] displayed an EC50 of 41.2 nM. This EC50 is about 2.8-fold lower than that of the compound before.

Turning to `Cc1cc(/C=C/C#N)cc(C)c1Oc1nc(NC23CC(C#N)(C2)C3)nc2[nH]cc(C)c12` [Compound 302, (E)-3-((4-(4-(2-cyanovinyl)-2,6-dimethylphenoxy)-5-methyl-7H-pyrrolo[2,3-d]pyrimidin-2-yl)amino)bicyclo[1.1.1]pentane-1-carbonitrile], it took 211 nM to reach a half-maximal effect (EC50).

Take `Cc1cc(/C=C/C#N)cc(C)c1Oc1nc(NC23CC(C#N)(C2)C3)nc2c1C1(C)OCC[C@H](C)N1C2=O` (stereo partly drawn) [Compound 271, 3-(((8S)-4-(4-((E)-2-cyanovinyl)-2,6-dimethylphenoxy)-4b,8-dimethyl-10-oxo-4b,7,8,10-tetrahydro-6H-pyrimido[5′,4′:3,4]pyrrolo[2,1-b][1,3]oxazin-2-yl)amino)bicyclo[11.1.1]pentane-1-carbonitrile]: the EC50 was determined as 52 nM.

As for `COCCN1C(=O)c2nc(NC34CC(C#N)(C3)C4)nc(Oc3c(C)cc(/C=C/C#N)cc3C)c2C1C` (stereo not drawn) [Example 203, (E)-3-((4-(4-(2-cyanovinyl)-2,6-dimethylphenoxy)-6-(2-methoxyethyl)-5-methyl-7-oxo-6,7-dihydro-5H-pyrrolo[3,4-d]pyrimidin-2-yl)amino)bicyclo[1.1.1]pentane-1-carbonitrile], it took 27.5 nM to reach a half-maximal effect (EC50).

For the compound `Cc1cc(/C=C/C#N)cc(C)c1Oc1nc(NC23CC(C#N)(C2)C3)nc2nn3c(c12)OCCC3` [Compound 301, (E)-3-((4-(4-(2-cyanovinyl)-2,6-dimethylphenoxy)-7,8-dihydro-6H-pyrimido[4′,5′:3,4]pyrazolo[5,1-b][1,3]oxazin-2-yl)amino)bicyclo[1.1.1]pentane-1-carbonitrile], the midpoint of the response, the EC50, lay at 50.7 nM.

Compound `Cc1cc(/C=C/C#N)cc(C)c1C(O)c1nc(NC23CC(C#N)(C2)C3)nc2nn(C)cc12` (stereo not drawn) [Compound 276, (E)-3-((4-((4-(2-cyanovinyl)-2,6-dimethylphenyl)(hydroxy)methyl)-2-methyl-2H-pyrazolo[3,4-d]pyrimidin-6-yl)amino)bicyclo[1.1.1]pentane-1-carbonitrile] registered a concentration for a half-maximal effect (EC50) of 194 nM.

Take `C/C(C#N)=C\c1cc(C)c(Oc2nc(NC34CC(C#N)(C3)C4)nc3nn(C)cc23)c(C)c1` [Example 258, (E)-3-((4-(4-(2-cyanoprop-1-en-1-yl)-2,6-dimethylphenoxy)-2-methyl-2H-pyrazolo[3,4-d]pyrimidin-6-yl)amino)bicyclo[1.1.1]pentane-1-carbonitrile]: a half-maximal response (EC50) required 178 nM.

What is called EC50 is the midpoint of the concentration-response curve.
